Patent US20110173718A1, “HERBICIDE TOLERANT PLANTS” (SYNGENTA CROP PROTECTION, INC., priority 2008, published 2011)
“And” between values parts separate entries of the source, which are not always exact repeats. Identical values can stand only once. Marks after values point to notes of the source that are not given here.

Key:
[1] = tested on: wild-type (WT) Samsun tobacco; test: Glasshouse spray test, wild-type tobacco; format: in vivo; settings: for % damage at 7 DAT: WT Samsun, individual plants
Description: Rooted transgenic T0 plantlets are transferred from agar and potted into 50% peat, 50% John Innes soil no 3 or, for example, MetroMix® 380 soil (Sun Gro Horticulture, Bellevue, Wash.) with slow-release fertilizer in 3 inch round or 4 inch square pots and left regularly watered to establish for 8-12 d in the glass house. Glass house conditions are about 24-27° C. day; 18-21° C. night and approximately a 14 h (or longer in UK summer) photoperiod. Humidity is ˜65% and light levels up to 2000 μmol/m^2 at bench level. Once new tissue emerges and plants they have reached the 2-4 leaf stage some of the clones from each event are sprayed with test chemicals dissolved in water with 0.2-0.25% X-77 surfactant and sprayed from a boom on a suitable track sprayer moving at 2 mph in a DeVries spray chamber with the nozzle about 2 inches from the plant tops. Spray volume is suitably 25 gallons per acre or, for example, […].
Test chemicals are, for example, compound 2.3 at 500 g/ha. At the same time that transgenic plants are sprayed so too are w/t Samsun tobacco plants grown from seed as well as non-transgenic plants regenerated from tissue culture and non-transgenic tissue culture escapes. Damage is assessed versus unsprayed control plants of like size and development.
6 Seed from w/t Samsun tobacco and 8 T1 seed from events B8 and G9 are also planted out in 3 inch pots, grown on for 7 to 12 d and then, as described in the foregoing examples, the plantlets spray tested for resistance to various chemicals and assessed at 14 DAT. Chemicals are formulated in 0.2% X77 and sprayed at a spray volume of 200 l/ha.
(§1) Seed of wild-type tobacco plants, C2 tobacco plants and of the T1 progeny of a further Arabidopsis-HST expressing tobacco line, D2 were planted out in 3 inch pots, grown on, sprayed with compounds 1.1, 2.30 and 3.6 at the rates shown in table 5. Percent damage scores were assessed at 7 DAT. Aside from the presumptive non-transgenic segregants the D2 line containing the Arabidopis HST expression construct offered the highest level of tolerance to the two HST herbicides with the Psuedomonas HPPD, C2 line, offering only marginal tolerance under the conditions of this test.
(§2) Single copy events amongst the T1 plant lines are identified by their 3:1 segregation ratio (wrt kanamycin and or herbicide) and by quantitative RT-PCR. Seed from the thus selected T1 tobacco (var Samsun) lines are sown in 3 inch diameter pots containing 50% peat, 50% John Innes soil no 3. After growth to the 3 leaf stage, plants are sprayed, as described above, in order to test for herbicide tolerance relative to like-treated non-transgenic tobacco plants.
(§3) Control tobacco plants and transgenic T1 plants expressing either the Pseudomonas or the wheat HPPD gene are sprayed at 37, 111, 333 and 1000 g/ha rates of HST inhibitors and, for example, compound 2.3.
(§4) Plants are assessed and scored for % damage at 16 DAT.

[2] = tested on: Arabidopsis HST transgenic tobacco plants; test: Glasshouse spray test, Arabidopsis HST transgenic tobacco; format: in vivo; settings: D2 line (Arabidopsis HST, segregating T1), individual plants
[3] = tested on: tobacco plants expressing Pseudomonas fluorescens HPPD; test: Glasshouse spray test, Pseudomonas HPPD transgenic tobacco; format: in vivo; settings: C2 line (Pseudomonas HPPD, T2), individual plants
From the text: Tobacco plants expressing the wild-type HPPD gene of Pseudomonas fluorescens strain 87-79 under operable control of the double enhanced 35S CMV promoter region, Nos3′ terminator and TMV translational enhancer were provided as detailed in Example 4 of WO0246387.
as §1
Transgenic lines of tobacco, soyabean and corn etc. can be engineered to express various heterologous HPPDs derived from, for example Avena (SEQ ID #26), Wheat (SEQ ID #27), Pseudomonas fluorescens (SEQ ID # 25) and Shewanella colwelliana (SEQ ID #28) as, for example, described in WO 02/46387.
as §2, §3, §4

[4] = target: T1, Chlamydomonas HST (Chlamydomonas reinhardtii, UniProt A1JHN0); test: HST assay (TLC, MFBQ formed), recombinant Chlamydomonas HST in E. coli membranes; format: biochemical; settings: 25 ppm; TLC, estimated amount of MFBQ formed, relative to controls; read-out: Chlamydomonas. HST % I at 25 ppm
T1 construct: GST (N); made in house; host or cells: E. coli (BL21A1 / BL21DE3), membrane fraction
T1 sequence (A1JHN0 51-370): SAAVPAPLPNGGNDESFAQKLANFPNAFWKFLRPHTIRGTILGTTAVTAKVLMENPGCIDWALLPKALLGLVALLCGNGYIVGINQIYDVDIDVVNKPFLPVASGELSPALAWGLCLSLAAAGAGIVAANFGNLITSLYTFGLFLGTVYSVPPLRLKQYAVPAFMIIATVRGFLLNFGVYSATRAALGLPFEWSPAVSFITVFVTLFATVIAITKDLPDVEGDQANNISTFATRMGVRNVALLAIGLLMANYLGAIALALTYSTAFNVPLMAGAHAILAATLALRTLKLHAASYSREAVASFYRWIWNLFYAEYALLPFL
How it was run: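 Recombinant GST-fused Chlamydomonas HST in E. coli membranes was incubated with 200 μM farnesyl diphosphate and 100 μM 14C-homogentisate in 50 mM Tricine-NaOH pH 8.5, 20 mM MgCl2 for ~20 min at 28 °C, with compounds in DMSO. Oxidised plus reduced MFBQ was quantified by TLC phosphorimaging. Results are percent inhibition versus no-inhibitor control across doses.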

[5] = tested on: HST in spinach chloroplast extract; test: HST assay (TLC, MFBQ formed), spinach chloroplast extract; format: biochemical; settings: 25 ppm; TLC, estimated amount of MFBQ formed, relative to controls
Description: HST enzyme preparations for assay are also prepared directly from fresh plant material. For example HST enzyme preparations are from spinach. In the first step intact spinach chloroplasts are prepared from two lots of 500 g of fresh baby spinach leaves (e.g from the salad section of the local supermarket). Prepacked spinach is usually already washed, but if buying loose leaves these must be rinsed in water before proceeding. Stalks, large leaves and mid-ribs are removed. Each 500 g lot of leaves is added to 1.5 l of ‘Grinding medium’ in a 2 L plastic beaker. Grinding medium is cold (4° C.) 50 mM Tricine/NaOH buffer at pH 7.1 containing 330 mM glucose, 2 mM sodium isoascorbate, 5 mM MgCl2 and 0.1% bovine serum albumen The beaker, kept at 4° C., is placed under a Polytron 6000 blender, fitted with a 1.5″cutting probe and the mixture blended in short bursts of 5-8 sec up to 8-10K rpm until all the leaves are macerated. The homogenate is filtered into a 5 L beaker (embedded in an ice bucket) through four layers of muslin, and two layers of 50μ mesh nylon cloth. The filtrate is transferred to 250 ml buckets of a Beckman GS-6 centrifuge and spun at […] (3020 rpm) for 2 min at 4° C. The supernatant is drained away and discarded to leave a sediment of chloroplasts. Chloroplasts are resuspended in a few ml of cold resuspension medium by gentle swirling and gentle use of a quill brush soaked in resuspension medium. Resuspension medium is 50 mM Hepes/KOH pH 7.8 containing 330 mM sorbitol, 2 mM EDTA, 5 mM KH2PO4, 2 mM MgCl2 and 0.1% bovine serum albumen at 4° C. The chloroplasts are resuspended in 5-10 ml of resuspension buffer, recentrifuged down and resuspended again in order to wash them. The chloroplasts are then once again centrifuged down and then broken by resuspension in about 5 ml of 50 mM Tricine-NaOH pH 7.8 to a protein concentration of about 40 mg/ml. The solution is stored frozen at −80° C. in aliquots. This resuspension is defrosted and used directly in HST activity assays. Alternatively, chloroplasts are prepared resuspended in 50 mM Tris/HCl buffer at pH 7.8 containing 330 mM sorbitol (alternative resuspension buffer) and layered on top of a percol gradient (comprising the same buffer containing 45% percol), spun down, the intact chloroplast fraction taken and washed 2 or 3 times in the alternative resuspension buffer and then spun down again, resuspended in breaking buffer (without sorbitol), flash frozen and stored in aliquots at −80° C.
Prenyltransferase (HST) activities are measured by determining the prenylation rates of [U—^14C]homogentisate using farnesyl diphosphate (FDP) as prenyl donor. ^14C homogentisate is prepared from ^14C tyrosine using L amino acid oxidase and HPPD. For inhibitor testing, compounds are dissolved in dimethylsulfoxide (DMSO). DMSO added at up to 2% v/v has no effect on assays. Control assays contain DMSO at the same concentration as in inhibitor containing assays.
Assays using spinach chloroplast extracts (100 μl final volume) contain up to 2 mg of chloroplast protein, 50 mM Tricine-NaOH pH 8.5, 50 mM MgCl2, 200 μM farnesyl diphosphate (FDP) and 26 μM ^14C-homogentisate (167 dpm/pmol). Assays are run for about an hour at 28° C. […] Lipophilic reactions products are extracted and analyzed essentially as described in the literature.
Using the above assays percentage inhibition of the amount of MFBQ formed at a range of doses of inhibitors relative to the control amount obtained with no inhibitor present is reported (Table 1). The better inhibitors give greater percentage inhibition at lower doses.

[6] = target: T2, Arabidopsis HST (Arabidopsis thaliana, UniProt Q1ACB3); test: HST total extraction (non TLC) assay, recombinant Arabidopsis HST from insect cells; format: biochemical; settings: 3 point dose curves only conducted at 50 μM HPP
T2 construct: GST (factor Xa cleavage site) (N); made in house; host or cells: Sf9 insect cells (baculovirus, pAcG3X), membrane fraction
T2 sequence (Q1ACB3 70-386): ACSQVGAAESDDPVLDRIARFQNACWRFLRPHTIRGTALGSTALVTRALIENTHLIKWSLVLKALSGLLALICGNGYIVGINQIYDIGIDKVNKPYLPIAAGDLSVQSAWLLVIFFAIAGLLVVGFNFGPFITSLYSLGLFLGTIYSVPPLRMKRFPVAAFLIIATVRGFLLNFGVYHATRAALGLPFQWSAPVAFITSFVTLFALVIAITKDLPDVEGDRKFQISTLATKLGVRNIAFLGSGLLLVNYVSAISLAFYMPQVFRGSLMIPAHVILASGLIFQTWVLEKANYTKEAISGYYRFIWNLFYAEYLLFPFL

SMILES | % damage at 7 DAT ([1]; 150 gai/ha) [%] | percent damage at 6 DAT ([1]; 300 g/ha, WT, reps) [%] | % damage at 7 DAT ([1]; 300 gai/ha) | % damage at 7 DAT ([1]; 450 gai/ha) [%] | % damage at 7 DAT ([2]; 150 gai/ha) | % damage at 7 DAT ([2]; 300 gai/ha) | % damage at 7 DAT ([2]; 450 gai/ha) | % damage at 7 DAT ([3]; 150 gai/ha) [%] | % damage at 7 DAT ([3]; 300 gai/ha) | % damage at 7 DAT ([3]; 450 gai/ha) [%] | inhibition at 25 ppm [4] [%] | Spinach chloroplast extract % I at 25 ppm [5] [%] | Estimated IC50 (ppm) [6]
CC(C)C(=O)OC1=C(c2cc(Cl)ccc2C(F)(F)F)S(=O)(=O)N(CC(F)F)c2nccnc21 [Compound 3.6] | 80 | 65 | 80% (2×) and 75% | 85 | 10% (2×) and 70% (2×) and 30% and 20% and 65% and 25% | 65% and 35% and 7% and 85% (2×) and 80% and 75% and 40% | 55% and 25% (2×) and 65% (2×) and 70% and 80% and 75% | 60 | 65% (3×) and 70% | 65 |  |  | 
Cc1cc(C)c(-c2c(O)c3nccnc3n(CC(F)F)c2=O)c(C)c1 [Compound 2.11] |  |  |  |  |  |  |  |  |  |  | 80 | 30 | 31* ppm
